The text below walks through data of patent US20260224563A1, “CRYSTALLINE FORMS OF 6-(3-((5-CHLORO-2-METHOXYPYRIDINE)-3-SULFONAMIDO)-2,6-DIFLUOROPHENYL)-N-METHYLIMIDAZO[1,5-A]PYRAZINE-1-CARBOXAMIDE AND METHODS FOR USING THE SAME” (HIBERCELL, INC., priority 2023, published 2026).

SMILES strings stand for the structures. Structures can show the parent of a compound that is named as a salt. Where two headings read alike, the source gives them in different places.

Series [1] is described as follows: Solubility testing in organic solvents and water (visual, room temperature). In kind it is physicochemical.
Series [2] in a line: Pharmacokinetic study of HC-7366 via oral (PO) administration of different formulations in beagle dogs. In kind it is in vivo. Particulars: dog, plasma, 7.5 mg/kg, PO 7.5 mpk, male beagle dogs. How it is done: 10 mL of 0.001 N HCl was used to wash the gavage catheter for each animal.
The nature of series [3]: Solubility in simulated biological fluid (FaSSGF and FaSSIF) at 37° C., HPLC; pH of filtrate, XRPD of filter cake. In kind it is physicochemical. To be noted: for times more soluble than the free acid (Form II): 0.5-hour mark; for pH (0 h) / Concentration / pH (24 h) / XRPD (filter cake, crystal form): 37° C.; for Concentration / pH (24 h) / XRPD (filter cake, crystal form): listed as K salt Form III; for pH (24 h): filtrate; for XRPD (filter cake, crystal form): up to 24 hours. How it is done: Approximately between 15 mg and 24 mg of sample was suspended in 5 mL or 8 mL of FaSSGF or FaSSIF, respectively. The resulting suspension was shaken at 700 rpm with a QQMSC-100 shaker at 37° C. The suspension was sampled and filtered at certain time intervals, which was achieved by sampling 1000 μL of each suspension which was then filtered and diluted, diluting the resulting filtrate for HPLC analysis to assess solubility. The pH of the filtrate was measured, and the filter cake was analyzed by XRPD.
Approximately 15 mg to 24 mg of sample was suspended in 5 or 8 mL of FaSSGF or FaSSIF, respectively. The resulting suspension was shaken at 700 rpm with a QQMSC-100 shaker at 37° C. The suspension was sampled and filtered at certain time intervals, which was achieved by sampling 1000 μL of each suspension was filtered and diluted, diluting the resulting filtrate for HPLC analysis to assess solubility. The pH of the filtrate was measured, and the filter cake was analyzed by XRPD.
Approximately 15 mg to 24 mg of sample was suspended in 5 or 8 mL of FaSSGF or FaSSIF, respectively. The resulting suspension was shaken at 700 rpm with a QQMSC-100 shaker at 37° C. The suspension was sampled and filtered in certain time interval, which was achieved by sampling 1000 μL of each suspension was filtered and diluted, diluting the resulting filtrate for HPLC analysis to assess solubility. The pH of the filtrate was measured, and the filter cake was analyzed by XRPD.

Series [4] is described as follows: Slurry study of potassium salt Form III in organic solvents and water (XRPD). In kind it is physicochemical. To be noted: for Result at 3 days (XRPD): slurry in THF.
Series [5] can be described thus: Solid-state stability (60° C./closed and 40° C./75% relative humidity open, up to seven days; HPLC purity, XRPD). In kind it is physicochemical. How it is done: HPLC method for stability and solubility testing is listed below.
• Column: Ascentis® Express C18 4.6*150 mm*2.7 μm • Mobile Phase A: 0.05% trifluoroacetic acid in water • Mobile Phase B: Methanol • Gradient (T/B %): 0/10, 10/100, 13.5/10, 15/10 • Column Temperature: 40° C. • Detector: DAD; 220 nm • Flow rate: 1.0 mL/min • Injection volume: 1 μL • Concentration: 1 mg/mL • Run time: 15 minutes • Diluent: Methanol:Water 9:1 (v/v)
The solid-state stability of Form III of the potassium salt was performed using the following protocol: • (1) A sample of Form III of the potassium salt was placed at 60° C./closed and 40° C./75% relative humidity (open) conditions for up to seven days. At the onset of the test (day 0) and day 7 of the test, the sample was dissolved in a diluent to prepare a 1 mg/mL solution for HPLC purity analysis. The solid sample was analyzed by XRPD to assess the crystal form of each solid at day 7. […] The XRPD data confirmed the physicochemical stability of Form III of the potassium salt under both closed and open conditions. […]

The nature of series [6]: Pharmacokinetics of HC-7366 in male and female beagle dogs following IV and oral administration of HC-7366-K (plasma and urine, LC-MS/MS). Further details: AUC(0-t)/D: unit not given here. In kind it is in vivo, Beagle Dog.

Usually Solubility stands for the concentration that dissolves in the medium under given conditions. Usually bioavailability stands for the share of a dose that reaches the circulation, judged against a reference dose that is usually intravenous. For the compound `CNC(=O)c1ncn2cc(-c3c(F)ccc(NS(=O)(=O)c4cc(Cl)cnc4OC)c3F)ncc12` [Potassium salt Form III, 6-(3-((5-chloro-2-methoxypyridine)-3-sulfonamido)-2,6-difluorophenyl)-N-methylimidazo[1,5-a]pyrazine-1-carboxamide], the Solubility is approximately 500 µg/mL in series [1] (Acetone, listed as Form III of the Potassium Salt); less than 100 µg/mL in series [1] (BuOH, 24 °C, organic solvent or mixture, thermodynamic from solid, BuOH, read-out: Solubility); less than 100 µg/mL in series [1] (DCM, listed as Form III of the Potassium Salt); more than 180000 µg/mL in series [1] (DMSO, 24 °C, organic solvent or mixture, thermodynamic from solid, DMSO, read-out: Solubility); more than 180000 µg/mL in series [1] (DMSO, listed as Form III of the Potassium Salt); less than 100 µg/mL in series [1] (EtOAc, listed as Form III of the Potassium Salt). In addition, the Solubility in series [1] (EtOH, listed as Form III of the Potassium Salt) is approximately 4000 µg/mL; in series [1] (H2O (water), listed as Form III of the Potassium Salt), approximately 1000 µg/mL; in series [1] (IPA, listed as Form III of the Potassium Salt), less than 100 µg/mL; in series [1] (IPAc, listed as Form III of the Potassium Salt), less than 100 µg/mL; in series [1] (MEK, listed as Form III of the Potassium Salt) it was less than 100 µg/mL; in series [1] (MTBE, 24 °C, organic solvent or mixture, thermodynamic from solid, MTBE, read-out: Solubility), less than 100 µg/mL. The Solubility was less than 100 µg/mL in series [1] (MeCN, listed as Form III of the Potassium Salt); more than 40000 µg/mL in series [1] (MeOH, listed as Form III of the Potassium Salt); more than 40000 µg/mL in series [1] (MeOH, listed as Form III of the potassium salt); less than 100 µg/mL in series [1] (THF, listed as Form III of the Potassium Salt); less than 100 µg/mL in series [1] (heptane, 24 °C, organic solvent or mixture, thermodynamic from solid, Heptane, read-out: Solubility). Besides, the bioavailability in series [2] (in a capsule, n=3) was approximately 50%. Further, the “times more soluble than the free acid (Form II)” value was “about 230 times” in series [3] (FaSSGF) and “about 100 times” in series [3] (FaSSIF). In addition, the “pH (0 h)” value in series [3] (FaSSGF) is reported as 1.60; in series [3] (FaSSIF), 6.50. Also, the Concentration in series [3] (FaSSGF, 0.5 h) is 46.8 µg/mL; in series [3] (FaSSGF, 2.0 h), 4.6 µg/mL; in series [3] (FaSSIF, 0.25 h) it was 155 µg/mL; in series [3] (FaSSIF, 0.5 h), 164 µg/mL; in series [3] (FaSSIF, 0.75 h), 160 µg/mL; in series [3] (FaSSIF, 1.0 h), 155 µg/mL. Further, the Concentration in series [3] (FaSSIF, 2.0 h) is 14.5 µg/mL. The “pH (24 h)” value in series [3] (FaSSGF) is listed as 1.66; in series [3] (FaSSIF), 6.83. The “XRPD (filter cake, crystal form)” value in series [3] (FaSSGF) and in series [3] (FaSSIF) was “Changed” throughout. The “Result at 3 days (XRPD)” value in series [4] (25° C.) and in series [4] (50° C.) was “Potassium salt Form III” in each case. Besides, in series [4] (slurry in Water, 25° C., 5 days, repeated aqueous slurry experiments), the “Result (XRPD)” value is recorded as “Potassium salt Form III (5 days)”. For the same compound, the “Purity (Area %) 220 nm” value in series [5] (0 day) was 99.90 Area %; in series [5] (40° C./75% RH (open), 7 days) it was 99.90 Area %; in series [5] (60° C./closed, 7 days), 99.90 Area %. The “XRPD After 7 Days” value in series [5] (40° C./75% RH (open)) is listed as “Unchanged”; in series [5] (60° C./closed, 7 days), “Unchanged”. In addition, the “physical and chemical stability” value in series [5] (both closed (60° C.) and open (40° C./75% RH) conditions for seven days) is “maintained physical and chemical stability”.
By Tmax is commonly meant the time at which the peak concentration occurs. As to `CNC(=O)c1ncn2cc(-c3c(F)ccc(NS(=O)(=O)c4cc(Cl)cnc4OC)c3F)ncc12` [HC-7366-K, 6-(3-((5-chloro-2-methoxypyridine)-3-sulfonamido)-2,6-difluorophenyl)-N-methylimidazo[1,5-a]pyrazine-1-carboxamide], the Tmax in series [2] is 4 h. In addition, in series [6] (Female Beagle dog, IV 0.5 mg/kg, mean n = 3), the “AUC(0-t)/D” value turned out to be 162284. The t1/2 in series [6] (Male Beagle dogs, IV 0.5 mg/kg, HC-7366 in plasma, mean n = 3) turned out to be 14 h. For the same compound, the clearance in series [6] (dog, plasma, male beagle dogs, intravenous 0.5 mg/kg, read-out: Clearance (CL)) worked out at 6 mL/h/kg. Also, in series [6] (dog, plasma, male beagle dogs, intravenous 0.5 mg/kg, read-out: volume of distribution at steady state (Vss)), the Vd was 0.107 L/kg. The CL renal in series [6] (dog, urine and plasma, female Beagle dogs, intravenous 0.5 mg/kg, read-out: Renal Clearance) worked out at 0.0066 mL/h/kg.
